Measured values published in patent publication US8080377B2, “Method for confirming the exposure on chrysene” (Korea Institute of Science and Technology, priority 2008, dated 2011).

Assays:
HepG2 cells = test: Quantitative real time RT-PCR of genes up- or down-regulated by chrysene; assay type: cell-based, human
Experimental: […]
To investigate and quantify the expressions of those genes, primers which can specifically proliferate of those genes' mRNA (see Table 4) were prepared, and quantitative real time RT-PCR was performed using My IQ Real-time PCR (Bio-rad, USA). […] To quantify PCR product, SYBR Green I (Bio-rad, USA) staining was performed. SYBR Green I staining is based on binding to double stranded DNA, so that as double stranded DNA increases during PCR, fluorescence intensity increases. […]

HepG2 cell line = test: Cytotoxicity assay (MTT assay), chrysene treated 48 hours; assay type: cell-based, human; settings: HepG2
Experimental: (§1) The human hepatoma cell line HepG2 (Korean Cell Line Bank) was cultured in DMEM (Gibco-BRL, USA) supplemented with 10% FBS in 100 mm dish until it grew 80%. The present inventors selected chrysene (Sigma-Aldrich, USA) among polycyclic aromatic hydrocarbons known to have carcinogenicity, based on the previous studies and reports. Chrysene was dissolved in DMSO. The concentration of vehicle was up to 0.1% in every experiment.
(§2) MTT assay with the HepG2 cell line was performed according to the method of Mossman et al. (J. Immunol. Methods, 65: 55-63, 1983). The cells were inoculated in a 24-well plate containing DMEM at the concentration of 4×10^5 cells/well, to which chrysene dissolved in DMSO was treated. 48 hours later, MTT (3-[4,5-dimethylthiazol-2-yl]-2,5-diphenyltetra zolium bromide) was added at the concentration of 5 mg/ml, followed by culture at 37° C. for 3 hours. Then, medium was eliminated and generated formazan crystal was dissolved in 500 μl of DMSO. The solution was aliquoted in a 96 well-plate and OD540 was measured. Cytotoxicity in the HepG2 cell line caused by chrysene was investigated. As a result, IC20 was 34.97 µM (see FIG. 1) and thus the concentration of chrysene for the further experiment was determined as the above.

[1] = as above; assay type: cell-based, human; settings: human, HepG2 cells; HepG2, MTT, 48 hours; read-out: IC20 (concentration exhibiting 80% cell survival rate)
Experimental: as §1, §2

[2] = animal tests; cited from earlier work
[3] = system: salmonella TA110 and TA98 strains; settings: even under normal metabolic activity of the liver (rats); cited from earlier work

c1ccc2c(c1)ccc1c3ccccc3ccc21 [chrysene]
expression profiles of 25 up-regulated genes and 10 down-regulated genes (HepG2 cells): consistent with the result of oligo-microarray | cytotoxicity in the human hepatoma cell line (HepG2 cell line): demonstrated cytotoxicity | IC20 at 48 h [1]: 35 µM | absorption rate through skin [2]: very slow | absorption via oral pathway [2]: absorbed | mutagenicity in Ames tests [3]: showed mutagenicity
